{"source": "patent US20180011102A1", "about": "“THE PROTEIN KINASE ACTIVITY OF PHOSPHOGLYCERATE KINASE 1 AS A TARGET FOR CANCER TREATMENT AND DIAGNOSIS” (Board of Regents, The University of Texas System, priority 2015, published 2018)", "key": {"histone H3 at Ser10": {"system": "histone H3 at Ser10", "assay": "Western blot of EGF-induced histone H3 S10 phosphorylation", "assay_type": "cell-based, human", "details": "U87 cells expressing PGK1 shRNA, EGF stimulation"}, "PDHK1 T338": {"system": "PDHK1 T338", "assay": "Immunoblotting of hypoxia-induced PDHK1 T338 phosphorylation", "assay_type": "cell-based, human", "details": "U87 and U251 cells with PGK1 shRNA, hypoxia 6 h", "method": "FIGS. 14A-P. Mitochondrial PGK1 Phosphorylates PDHK1 at T338. FIG. 14A. […] Immunoblotting analyses were performed with the indicated antibodies. FIG. 14B. U87 cells (left panel) or U87/EGFR (right panel) cells expressing PGK1 shRNA with or without reconstituted expression of WT rPGK1 and the indicated mutants were stimulated with or without hypoxia for 6 h (left panel) or EGF (100 ng/ml) (right panel) for 6 h. These cells were incubated with [1-^14C]-pyruvate for 2 h. [1-^14C]CO2 production rates were measured. FIG. 14C. U87 cells expressing SFB-PDHK1, SFB-PDHK2, SFB-PDHK3, or SFB-PDHK4 were stimulated with or without hypoxia for 6 h. Mitochondrial fractions of these cells were prepared. SFB pull-down analyses with streptavidin-conjugated beads were performed. Immunoblotting analyses were performed with the indicated antibodies. FIG. 14D. […] Phospho-amino acid analysis of gel-isolated ^32P-phosphorylated SUMO-PDHK1 was performed. […] On the autoradiogram in the right hand panel, the green circle indicates pSer; the red circle indicates pThr; and the black circle indicates pTyr. FIG. 14E. […] FIG. 14F. […] ATP concentrations in mitoplast isolated from U87 or U251 cells treated with or without hypoxia for 6 h were measured. […] The glycolytic activities of bacterially purified WT PGK1, PGK1 T378P, PGK1 S203A, and PGK1 R39/K41A were measured. […]"}, "PDH": {"system": "PDH", "assay": "Immunoblotting of hypoxia-induced PDH phosphorylation", "assay_type": "cell-based, human", "details": "U87 and U251 cells expressing PGK1 shRNA, hypoxia 6 h", "method": "FIGS. 5A-E. PDHK1 Phosphorylation by PGK1 Activates PDHK1. Immunoblotting analyses were performed with the indicated antibodies. FIG. 5A. Bacterially purified His-PDH with purified WT PDHK1 or PDHK1 T338A was mixed with purified WT PGK1 or PGK1 T378P. In vitro phosphorylation analyses were performed. FIG. 5B. […] FIG. 5C. U87 and U251 cells expressing PDHK1 shRNA with or without reconstituted expression of WT rPDHK1 or rPDHK1 T338A were stimulated with or without hypoxia for 6 h. FIG. 5D. […] FIG. 5E."}, "PDH complex": {"system": "PDH complex", "details": "isolated mitochondria of U87 cells with PGK1 shRNA, hypoxia 6 h", "experimental": "U87 cells with or without PGK1 shRNA and with or without reconstituted expression of WT rPGK1 or rPGK1 S203A were stimulated with or without hypoxia for 6 h. Mitochondrial fractions of the cells were prepared and activity of PDH complex-mediated conversion of ^14C-labeled pyruvate into ^14C-labeled CO2 was measured. Data represent the means±SD of three independent experiments. *p<0.01.\nThe [1-^14C]-pyruvate conversion assay was performed as previously described (Pezzato et al., 2009) with minor modification. Briefly, ^14CO2 production through the PDH complex was measured using isolated mitochondria (1 mg) in the 1 ml mitochondria resuspension buffer (200 mM sucrose, 10 mM Hepes [pH 7.4], 5 mM malate, 2 mM monosodium phosphate, 2 mM ADP, 1 mM EGTA) containing [1-^14C]-pyruvate (0.1 μCi/ml). The incubation mixture in a 2-ml Eppendorf tube was placed at the bottom of a 20-ml scintillation vial with a foil-lined screw cap and maintained in agitation. The ^14CO2 produced during incubation was trapped by 1 ml of hyamine hydroxide at the bottom of the scintillation vial. […] Then, 19 ml of scintillator liquid was added to each scintillation vial and radioactivity was measured on a scintillation counter. The results were normalized based on mitochondrial protein levels measured by Bradford assay using bovine serum albumin as the standard."}}, "note": "Entries after “also recorded” stand apart in the source; their conditions may differ."}
{"substance": "PGK1 shRNA: pGIPZ PGK1 shRNA generated with GGATGTCTATGTCAATGATGC (SEQ ID NO: 4)", "values": [{"measurement": "EGF-induced phosphorylation of histone H3 at Ser10", "setting": "histone H3 at Ser10", "value": "blocked; also recorded: greatly diminished"}, {"measurement": "hypoxia-induced PDHK1 T338 phosphorylation", "setting": "PDHK1 T338", "value": "blocked"}, {"measurement": "hypoxia-induced PDH phosphorylation", "setting": "PDH", "value": "blocked"}, {"measurement": "hypoxia-induced suppression of conversion of pyruvate to CO2", "setting": "PDH complex", "value": "significantly counteracted"}]}
